What was measured:
[1] = system: K-562 cells; assay: Cell growth inhibition assay (CellTiter-Glo), K-562; conditions: for GI50: Homo sapiens, K562, read-out: K-562 GI50; for K-562 TGI: K-562 cells, total growth inhibition, CellTiter-Glo;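 on all read-outs here: cellular ATP measured by luminescence after 4 days of exposure, 3-fold dilution series from 10 µM, DMSO vehicle-treated cells define 100%, cell-free medium wells −100%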
[2] = target: CREBBP bromodomain (His-CREBBP(1081-1197)) (Homo sapiens (Human), UniProt Q92793); assay: AlphaScreen in-vitro binding assay for CREBBP; conditions: single determination or n ≧ 2 independent determinations, read-out: Biochemical IC50 CREBBP
Chain of CREBBP bromodomain (His-CREBBP(1081-1197)) (Q92793 1081-1197): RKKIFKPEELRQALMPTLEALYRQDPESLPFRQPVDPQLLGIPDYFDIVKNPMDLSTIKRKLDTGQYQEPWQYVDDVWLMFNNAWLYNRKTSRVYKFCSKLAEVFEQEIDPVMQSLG
How it was run: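 Reactions at 30 °C for 35 min, then Ni-chelate acceptor and streptavidin donor beads in HEPES pH 7.5, NaCl, Tween20, BSA, 60 min at room temperature. Eight-point compound series; IC50 by non-linear regression of percent inhibition.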

[3] = target: BRD3 (His-Brd3(20-477)) (Homo sapiens (Human), UniProt Q15059); assay: TR-FRET in-vitro binding assay for BRD3; conditions: single determination or n ≧ 2 independent determinations, read-out: Biochemical IC50 BRD3
Chain of BRD3 (His-Brd3(20-477)) (Q15059 20-477): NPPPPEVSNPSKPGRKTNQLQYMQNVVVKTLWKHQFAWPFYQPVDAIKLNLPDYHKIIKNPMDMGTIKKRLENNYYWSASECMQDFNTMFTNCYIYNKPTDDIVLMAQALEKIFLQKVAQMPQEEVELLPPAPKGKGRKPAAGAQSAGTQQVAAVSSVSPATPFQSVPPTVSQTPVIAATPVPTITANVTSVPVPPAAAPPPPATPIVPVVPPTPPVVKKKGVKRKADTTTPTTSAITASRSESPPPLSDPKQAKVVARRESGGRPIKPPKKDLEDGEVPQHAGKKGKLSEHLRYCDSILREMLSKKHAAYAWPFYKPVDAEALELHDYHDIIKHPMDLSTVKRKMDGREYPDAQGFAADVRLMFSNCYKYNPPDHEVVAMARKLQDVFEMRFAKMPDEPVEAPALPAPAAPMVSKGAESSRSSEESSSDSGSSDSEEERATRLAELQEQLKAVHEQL
How it was run: (§1)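 Compounds were serially diluted over eight concentrations and added to wells. TR-FRET signal was then measured.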

[4] = target: BRD4 (His-Brd4(44-477)) (Homo sapiens (Human), UniProt O60885); assay: TR-FRET in-vitro binding assay for BRD4; conditions: single determination or n ≧ 2 independent determinations, read-out: Biochemical IC50 BRD4
How it was run: as §1

[5] = system: MV-4-11 cells; assay: Cell growth inhibition assay (CellTiter-Glo), MV-4-11; conditions: for GI50: Homo sapiens, MV4-11, read-out: MV-4-11 GI50; for MV-4-11 TGI: MV-4-11 cells, total growth inhibition, CellTiter-Glo;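 on all read-outs here: cellular ATP luminescence after 4 days, 3-fold dilution series from 10 µM top dose, vehicle (0.1% DMSO) set to 100%, cell-free medium set to −100%, day 0 corrected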
[6] = target: nuclear BRD4-NUT foci in HCC2494 NUT midline carcinoma cells (Homo sapiens, UniProt O60885); assay: cell-based
[7] = system: THP-1 cells; assay: Cell growth inhibition assay (CellTiter-Glo), THP-1; conditions: for GI50: Homo sapiens, THP-1, read-out: THP-1 GI50; for THP-1 TGI: THP-1 cells, total growth inhibition, CellTiter-Glo;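 on all read-outs here: viability read as cellular ATP luminescence after 4 days, 3-fold dilution series from 10 µM, DMSO vehicle-treated cells taken as 100%, cell-free medium wells as −100%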
[8] = target: BRD2 (His-Brd2(60-472)) (Homo sapiens (Human), UniProt P25440); assay: TR-FRET in-vitro binding assay for BRD2; conditions: single determination or n ≧ 2 independent determinations, read-out: Biochemical IC50 BRD2
Chain of BRD2 (His-Brd2(60-472)) (P25440 60-472): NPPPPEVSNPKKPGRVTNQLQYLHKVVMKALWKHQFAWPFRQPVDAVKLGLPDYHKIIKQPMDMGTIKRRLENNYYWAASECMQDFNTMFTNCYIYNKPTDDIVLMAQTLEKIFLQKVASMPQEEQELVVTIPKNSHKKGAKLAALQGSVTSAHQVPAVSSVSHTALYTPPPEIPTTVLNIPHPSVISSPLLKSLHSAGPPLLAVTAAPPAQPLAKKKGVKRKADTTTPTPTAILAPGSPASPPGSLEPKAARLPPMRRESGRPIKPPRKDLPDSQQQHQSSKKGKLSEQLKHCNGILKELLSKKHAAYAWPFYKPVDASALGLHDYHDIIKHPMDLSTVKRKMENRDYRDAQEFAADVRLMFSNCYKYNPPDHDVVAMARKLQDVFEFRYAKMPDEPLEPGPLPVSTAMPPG
How it was run: as §1

`Cc1cc(N2C(=O)c3nc(C)n(C(C)C)c3C2c2ccc(Cl)cc2)cc2c1nnn2C` (racemic) [Example 2, 6-(4-chlorophenyl)-5-(3,7-dimethyl-3H-benzo[d][1,2,3]triazol-5-yl)-1-isopropyl-2-methyl-5,6-dihydropyrrolo[3,4-d]imidazol-4(1H)-one] was tested, and the GI50 [1] was 0.0959 µM, the “K-562 TGI” value [1] was greater than 10 µM and the IC50 [2] was 8.6 µM. It also gave an IC50 [3] of 0.015 µM, an IC50 [4] of 0.02 µM and a GI50 [5] of 0.0138 µM. The “MV-4-11 TGI” value [5] was 0.02865 µM, the IC50 [6] was 0.0145 µM and the GI50 [7] was 0.0234 µM. For the same molecule, the “THP-1 TGI” value [7] was 0.04095 µM and the IC50 [8] was 0.033 µM.
With `Cc1cc(N2C(=O)c3c(nc(C)n3C(C)C)C2c2ccc(Cl)cc2)cc2c1nnn2C` (racemic) [Example 3, 6-(4-chlorophenyl)-5-(3,7-dimethyl-3H-benzo[d][1,2,3]triazol-5-yl)-3-isopropyl-2-methyl-5,6-dihydropyrrolo[3,4-d]imidazol-4(3H)-one] the GI50 [1] was 0.0551 µM, the “K-562 TGI” value [1] was greater than 10 µM and the IC50 [2] was 2.6 µM. For the same molecule, the IC50 [3] was 0.012 µM, the IC50 [4] was 0.015 µM and the GI50 [5] was 0.00819 µM. For the same molecule, the “MV-4-11 TGI” value [5] was 0.01445 µM, the IC50 [6] was 0.0123 µM and the GI50 [7] was 0.0137 µM. For the same molecule, the “THP-1 TGI” value [7] was 0.02755 µM and the IC50 [8] was 0.027 µM.
In the case of `Cc1cc(N2C(=O)c3nc(C4CC4)n(C(C)C)c3C2c2ccc(Cl)cc2)cn2c(C)nnc12` (racemic) [Example 13, 6-(4-chlorophenyl)-2-cyclopropyl-5-(3,8-dimethyl-[1,2,4]triazolo[4,3-a]pyridin-6-yl)-1-isopropyl-5,6-dihydropyrrolo[3,4-d]imidazol-4(1H)-one], the GI50 [1] is reported as 0.114 µM, the “K-562 TGI” value [1] is reported as greater than 10 µM and the IC50 [2] is reported as 4.5 µM. It also gave an IC50 [3] of 0.039 µM, an IC50 [4] of 0.037 µM and a GI50 [5] of 0.0113 µM. The “MV-4-11 TGI” value [5] was 0.02715 µM, the IC50 [6] was 0.0161 µM and the GI50 [7] was 0.0261 µM. The “THP-1 TGI” value [7] was 0.05945 µM and the IC50 [8] was 0.041 µM.
For `Cc1cc(N2C(=O)c3nc(C)n(C(C)C)c3C2c2ccc(Cl)cc2)nn2c(C)nnc12` (racemic) [Example 18, 6-(4-chlorophenyl)-5-(3,8-dimethyl-[1,2,4]triazolo[4,3-b]pyridazin-6-yl)-1-isopropyl-2-methyl-5,6-dihydropyrrolo[3,4-d]imidazol-4(1H)-one], the GI50 [1] was 0.091 µM, the “K-562 TGI” value [1] was greater than 10 µM and the IC50 [2] was 27.7 µM. For the same molecule, the IC50 [3] was 0.011 µM, the IC50 [4] was 0.013 µM and the GI50 [5] was 0.0112 µM. The “MV-4-11 TGI” value [5] was 0.02695 µM, the IC50 [6] was 0.00756 µM and the GI50 [7] was 0.0159 µM. The “THP-1 TGI” value [7] was 0.0356 µM and the IC50 [8] was 0.019 µM.
`COc1ccc(-c2nc3c([nH]2)C(c2ccc(Cl)cc2)N(c2cc(C)c(=O)n(C)c2)C3=O)cn1` (stereo not drawn) [Example 4, 6-(4-chlorophenyl)-5-(1,5-dimethyl-6-oxo-1,6-dihydropyridin-3-yl)-2-(6-methoxypyridin-3-yl)-5,6-dihydropyrrolo[3,4-d]imidazol-4(1H)-one] was tested, and the GI50 [1] was 0.254 µM, the “K-562 TGI” value [1] was greater than 10 µM and the IC50 [2] was 1.4 µM. The IC50 [3] was 0.068 µM, the IC50 [4] was 0.064 µM and the GI50 [5] was 0.0695 µM. The “MV-4-11 TGI” value [5] was 0.116 µM, the IC50 [6] was 0.0747 µM and the GI50 [7] was 0.11 µM. The “THP-1 TGI” value [7] was 0.207 µM and the IC50 [8] was 0.068 µM.
In the case of `COc1ccc(-c2nc3c([nH]2)[C@@H](c2ccc(Cl)cc2)N(c2cc(C)c(=O)n(C)c2)C3=O)cn1` [Example 5, (R)-6-(4-chlorophenyl)-5-(1,5-dimethyl-6-oxo-1,6-dihydropyridin-3-yl)-2-(6-methoxypyridin-3-yl)-5,6-dihydropyrrolo[3,4-d]imidazol-4(1H)-one], the GI50 [1] is reported as 0.221 µM, the “K-562 TGI” value [1] is reported as greater than 10 µM and the IC50 [2] is reported as 0.56 µM. It also gave an IC50 [3] of 0.038 µM, an IC50 [4] of 0.03 µM and a GI50 [5] of 0.0371 µM. For the same molecule, the “MV-4-11 TGI” value [5] was 0.0739 µM, the IC50 [6] was 0.067 µM and the GI50 [7] was 0.06 µM. The “THP-1 TGI” value [7] was 0.106 µM and the IC50 [8] was 0.032 µM.
In the case of `COc1ccc(-c2nc3c(n2C)C(=O)N(c2cc(C)c(=O)n(C)c2)C3c2ccc(Cl)cc2)cn1` (stereo not drawn) [Example 6, 6-(4-chlorophenyl)-5-(1,5-dimethyl-6-oxo-1,6-dihydropyridin-3-yl)-2-(6-methoxypyridin-3-yl)-3-methyl-5,6-dihydropyrrolo[3,4-d]imidazol-4(3H)-one], the GI50 [1] is reported as 0.23 µM, the “K-562 TGI” value [1] is reported as greater than 10 µM and the IC50 [2] is reported as 2.7 µM. The IC50 [3] was 0.088 µM, the IC50 [4] was 0.092 µM and the GI50 [5] was 0.0601 µM. For the same molecule, the “MV-4-11 TGI” value [5] was 0.102 µM, the IC50 [6] was 0.0863 µM and the GI50 [7] was 0.161 µM. The “THP-1 TGI” value [7] was 0.324 µM and the IC50 [8] was 0.088 µM.
In the case of `COc1ccc(-c2nc3c(n2C)C(=O)N(c2cc(C)c(=O)n(C)c2)[C@@H]3c2ccc(Cl)cc2)cn1` [Example 7, (R)-6-(4-chlorophenyl)-5-(1,5-dimethyl-6-oxo-1,6-dihydropyridin-3-yl)-2-(6-methoxypyridin-3-yl)-3-methyl-5,6-dihydropyrrolo[3,4-d]imidazol-4(3H)-one], the GI50 [1] is reported as 0.17 µM, the “K-562 TGI” value [1] is reported as greater than 10 µM and the IC50 [2] is reported as 1.5 µM. It also gave an IC50 [3] of 0.048 µM, an IC50 [4] of 0.056 µM and a GI50 [5] of 0.0446 µM. For the same molecule, the “MV-4-11 TGI” value [5] was 0.085 µM, the IC50 [6] was 0.0735 µM and the GI50 [7] was 0.0655 µM. The “THP-1 TGI” value [7] was 0.111 µM and the IC50 [8] was 0.06 µM.
In the case of `COc1ccc(-c2nc3c(n2C)C(c2ccc(Cl)cc2)N(c2cc(C)c(=O)n(C)c2)C3=O)cn1` (stereo not drawn) [Example 8, 6-(4-chlorophenyl)-5-(1,5-dimethyl-6-oxo-1,6-dihydropyridin-3-yl)-2-(6-methoxypyridin-3-yl)-1-methyl-5,6-dihydropyrrolo[3,4-d]imidazol-4(1H)-one], the GI50 [1] is reported as 0.309 µM, the “K-562 TGI” value [1] is reported as greater than 10 µM and the IC50 [2] is reported as 0.97 µM. For the same molecule, the IC50 [3] was 0.079 µM, the IC50 [4] was 0.086 µM and the GI50 [5] was 0.051 µM. The “MV-4-11 TGI” value [5] was 0.098 µM, the IC50 [6] was 0.092 µM and the GI50 [7] was 0.152 µM. For the same molecule, the “THP-1 TGI” value [7] was 0.314 µM and the IC50 [8] was 0.091 µM.
For `COc1ccc(-c2nc3c(n2C(C)C)C(c2ccc(Cl)cc2)N(c2cc(C)c4nnc(C)n4c2)C3=O)cn1` (stereo not drawn) [Example 9, 6-(4-chlorophenyl)-5-(3,8-dimethyl-[1,2,4]triazolo[4,3-a]pyridin-6-yl)-1-isopropyl-2-(6-methoxypyridin-3-yl)-5,6-dihydropyrrolo[3,4-d]imidazol-4(1H)-one], the GI50 [1] was 0.258 µM, the “K-562 TGI” value [1] was greater than 10 µM and the IC50 [2] was greater than 37 µM. For the same molecule, the IC50 [3] was 0.034 µM, the IC50 [4] was 0.034 µM and the GI50 [5] was 0.0484 µM. For the same molecule, the “MV-4-11 TGI” value [5] was 0.0942 µM, the IC50 [6] was 2.09 µM and the GI50 [7] was 0.0987 µM. For the same molecule, the “THP-1 TGI” value [7] was 0.175 µM and the IC50 [8] was 0.043 µM.
For `COc1ncc(-c2nc3c(n2C(C)C)C(c2ccc(Cl)cc2)N(c2cc(C)c4nnc(C)n4c2)C3=O)c(OC)n1` (stereo not drawn) [Example 10, 6-(4-chlorophenyl)-2-(2,4-dimethoxypyrimidin-5-yl)-5-(3,8-dimethyl-[1,2,4]triazolo[4,3-a]pyridin-6-yl)-1-isopropyl-5,6-dihydropyrrolo[3,4-d]imidazol-4(1H)-one], the GI50 [1] was 0.327 µM, the “K-562 TGI” value [1] was greater than 10 µM and the IC50 [2] was 6.3 µM. For the same molecule, the IC50 [3] was 0.059 µM, the IC50 [4] was 0.045 µM and the GI50 [5] was 0.0297 µM. The “MV-4-11 TGI” value [5] was 0.0785 µM, the IC50 [6] was 0.18 µM and the GI50 [7] was 0.159 µM. For the same molecule, the “THP-1 TGI” value [7] was 0.302 µM and the IC50 [8] was 0.06 µM.
With `Cc1noc(C)c1-c1nc2c(n1C(C)C)C(c1ccc(Cl)cc1)N(c1cc(C)c(=O)n(C)c1)C2=O` (stereo not drawn) [Example 27, 6-(4-chlorophenyl)-5-(1,5-dimethyl-6-oxo-1,6-dihydropyridin-3-yl)-2-(3,5-dimethylisoxazol-4-yl)-1-isopropyl-5,6-dihydropyrrolo[3,4-d]imidazol-4(1H)-one] the GI50 [1] was 0.861 µM, the “K-562 TGI” value [1] was greater than 10 µM and the IC50 [3] was 0.096 µM. For the same molecule, the IC50 [4] was 0.12 µM, the GI50 [5] was 0.0827 µM and the “MV-4-11 TGI” value [5] was 0.142 µM. For the same molecule, the IC50 [6] was 0.279 µM, the GI50 [7] was 0.195 µM and the “THP-1 TGI” value [7] was 0.433 µM. The IC50 [8] was 0.14 µM.
`Cc1cc(N2C(=O)c3c(nc(C)n3C3CC3)C2c2ccc(Cl)cc2)cn2c(C)nnc12` (stereo not drawn) [Example 115, 6-(4-chlorophenyl)-3-cyclopropyl-5-(3,8-dimethyl-[1,2,4]triazolo[4,3-a]pyridin-6-yl)-2-methyl-5,6-dihydropyrrolo[3,4-d]imidazol-4(3H)-one] was tested, and the GI50 [1] was 0.102 µM, the “K-562 TGI” value [1] was greater than 10 µM and the IC50 [3] was 0.066 µM. For the same molecule, the IC50 [4] was 0.048 µM, the GI50 [5] was 0.0103 µM and the “MV-4-11 TGI” value [5] was 0.0177 µM. For the same molecule, the IC50 [6] was 0.0205 µM, the GI50 [7] was 0.0234 µM and the “THP-1 TGI” value [7] was 0.0581 µM. It also gave an IC50 [8] of 0.068 µM.
